Assay results as given in the NIST ThermoML archive (doi:10.1021/acs.jced.8b00176).

Assay: xn = mol fraction of the nth substance listed
Settings: 100 kPa, Liquid; for viscosity: Falling or rolling sphere viscometry; for speed of sound: Frequency=3 MHz, Single path-length method; for mass density: Vibrating tube method

CCCCn1cc[n+](C)c1.O=S(=O)([O-])C(F)(F)F [1-butyl-3-methylimidazolium trifluoromethanesulfonate] + CC#N
Settings | mass density [kg/m3] | speed of sound [m/s] | viscosity [mPa·s]
298.15 K, x1 = 0.0911 | 958.58 | 1306.2 | 0.94
298.15 K, x1 = 0.2023 | 1074.82 | 1330.8 | 1.74
298.15 K, x1 = 0.3029 | 1137.12 | 1347.2 | 4.03
298.15 K, x1 = 0.3998 | 1179 | 1359.4 | 6.63
298.15 K, x1 = 0.4994 | 1211.16 | 1368.6 | 11.09
298.15 K, x1 = 0.5953 | 1234.14 | 1375.6 | 19.01
298.15 K, x1 = 0.7029 | 1255.85 | 1382.5 | 29.57
298.15 K, x1 = 0.8009 | 1271.78 | 1386.6 | 40.36
298.15 K, x1 = 0.9012 | 1285.59 | 1389.8 | 56.57
298.15 K, x1 = 1 | 1297.46 | 1393.2 | 82.38
303.15 K, x1 = 0.0911 | 954.576 | 1289.2 | 0.88
303.15 K, x1 = 0.2023 | 1070.41 | 1315.6 | 1.61
303.15 K, x1 = 0.3029 | 1132.76 | 1333 | 3.64
303.15 K, x1 = 0.3998 | 1174.94 | 1346.1 | 5.9
303.15 K, x1 = 0.4994 | 1207.1 | 1355.7 | 9.65
303.15 K, x1 = 0.5953 | 1230.08 | 1363.1 | 16.22
303.15 K, x1 = 0.7029 | 1251.97 | 1370.6 | 24.73
303.15 K, x1 = 0.8009 | 1267.97 | 1374.9 | 33.14
303.15 K, x1 = 0.9012 | 1281.58 | 1378.4 | 45.89
303.15 K, x1 = 1 | 1293.46 | 1382.8 | 66.69
308.15 K, x1 = 0.0911 | 949.838 | 1272.1 | 0.83
308.15 K, x1 = 0.2023 | 1066.01 | 1300.6 | 1.58
308.15 K, x1 = 0.3029 | 1128.52 | 1318.8 | 3.3
308.15 K, x1 = 0.3998 | 1170.95 | 1332.8 | 5.26
308.15 K, x1 = 0.4994 | 1202.79 | 1343 | 8.46
308.15 K, x1 = 0.5953 | 1225.98 | 1350.7 | 13.86
308.15 K, x1 = 0.7029 | 1247.9 | 1358.8 | 20.9
308.15 K, x1 = 0.8009 | 1264.18 | 1363.4 | 27.82
308.15 K, x1 = 0.9012 | 1277.73 | 1367 | 37.7
308.15 K, x1 = 1 | 1289.47 | 1371.7 | 52.86
313.15 K, x1 = 0.0911 | 944.8 | 1255.1 | 0.79
313.15 K, x1 = 0.2023 | 1061.34 | 1285.5 | 1.48
313.15 K, x1 = 0.3029 | 1124.17 | 1304.8 | 3.01
313.15 K, x1 = 0.3998 | 1166.71 | 1319.6 | 4.73
313.15 K, x1 = 0.4994 | 1198.75 | 1330.3 | 7.48
313.15 K, x1 = 0.5953 | 1221.91 | 1338.4 | 12.06
313.15 K, x1 = 0.7029 | 1243.95 | 1347 | 17.91
313.15 K, x1 = 0.8009 | 1260.12 | 1352 | 23.51
313.15 K, x1 = 0.9012 | 1273.98 | 1355.8 | 31.45
313.15 K, x1 = 1 | 1285.47 | 1360.7 | 43.67
318.15 K, x1 = 0.0911 | 939.614 | 1238.2 | 0.75
318.15 K, x1 = 0.2023 | 1057.1 | 1270.6 | 1.4
318.15 K, x1 = 0.3029 | 1120.05 | 1290.8 | 2.75
318.15 K, x1 = 0.3998 | 1162.77 | 1306.4 | 4.26
318.15 K, x1 = 0.4994 | 1194.47 | 1317.7 | 6.65
318.15 K, x1 = 0.5953 | 1217.75 | 1326.2 | 10.56
318.15 K, x1 = 0.7029 | 1240.12 | 1335.4 | 15.52
318.15 K, x1 = 0.8009 | 1256.17 | 1340.7 | 20.16
318.15 K, x1 = 0.9012 | 1270.02 | 1344.7 | 26.58
318.15 K, x1 = 1 | 1281.47 | 1349.9 | 36.29
323.15 K, x1 = 0.0911 | 934.671 | 1221.3 | 0.71
323.15 K, x1 = 0.2023 | 1052.93 | 1255.8 | 1.32
323.15 K, x1 = 0.3029 | 1115.71 | 1276.9 | 2.54
323.15 K, x1 = 0.3998 | 1158.5 | 1293.4 | 3.88
323.15 K, x1 = 0.4994 | 1190.69 | 1305.2 | 5.95
323.15 K, x1 = 0.5953 | 1213.78 | 1314 | 9.33
323.15 K, x1 = 0.7029 | 1236.14 | 1323.8 | 13.54
323.15 K, x1 = 0.8009 | 1252.29 | 1329.5 | 17.4
323.15 K, x1 = 0.9012 | 1266.17 | 1333.7 | 22.66
323.15 K, x1 = 1 | 1277.48 | 1338.8 | 30.57
